For 29 compounds, GI50 results are on record in US10160755B2 (Plexxikon Inc., priority 2015, dated 2018).

The test addresses T1, BA/F3-FLT3-ITD + F691L cells (Homo sapiens, UniProt P36888, F691L, cells depend on it, form not given).
T1 sequence (P36888 1-993 F691L): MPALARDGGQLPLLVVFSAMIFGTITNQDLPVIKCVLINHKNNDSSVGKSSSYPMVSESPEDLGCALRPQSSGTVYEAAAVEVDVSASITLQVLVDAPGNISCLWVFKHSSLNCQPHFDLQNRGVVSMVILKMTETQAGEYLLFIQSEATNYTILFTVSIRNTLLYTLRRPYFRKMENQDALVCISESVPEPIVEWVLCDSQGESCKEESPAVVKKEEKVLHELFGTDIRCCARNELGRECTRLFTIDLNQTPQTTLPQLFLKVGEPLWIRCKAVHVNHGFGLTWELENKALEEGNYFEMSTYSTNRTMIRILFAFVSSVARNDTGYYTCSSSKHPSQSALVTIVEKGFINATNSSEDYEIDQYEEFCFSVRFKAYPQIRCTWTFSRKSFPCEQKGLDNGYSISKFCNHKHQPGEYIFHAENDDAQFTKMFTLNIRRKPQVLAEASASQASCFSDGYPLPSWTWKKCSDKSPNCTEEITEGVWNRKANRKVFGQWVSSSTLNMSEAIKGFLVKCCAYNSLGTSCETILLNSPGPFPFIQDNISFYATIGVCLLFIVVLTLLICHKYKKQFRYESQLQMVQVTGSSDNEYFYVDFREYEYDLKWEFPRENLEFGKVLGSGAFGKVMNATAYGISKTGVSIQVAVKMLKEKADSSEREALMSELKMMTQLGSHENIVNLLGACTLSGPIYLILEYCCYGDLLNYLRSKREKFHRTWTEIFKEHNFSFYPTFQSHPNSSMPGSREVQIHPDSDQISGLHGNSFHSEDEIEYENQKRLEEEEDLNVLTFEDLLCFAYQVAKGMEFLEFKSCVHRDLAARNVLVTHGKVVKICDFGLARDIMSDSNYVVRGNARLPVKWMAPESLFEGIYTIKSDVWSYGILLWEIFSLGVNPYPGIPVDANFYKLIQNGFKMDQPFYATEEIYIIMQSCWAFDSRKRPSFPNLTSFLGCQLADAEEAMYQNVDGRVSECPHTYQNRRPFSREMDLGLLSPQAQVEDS
The experiment in a line: BA/F3-FLT3-ITD + F691L cell proliferation assay (CellTiter-Glo). The class given is cell-based, murine. Particulars: BaF3 FLT3 ITD/F691L cells; read-out: Cell Activity (IC50 μM) BaF3_FLT3_ITD/F691L. Put shortly: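 Murine BA/F3 cells transfected with full-length FLT3 carrying ITD plus D835Y or F691L, grown without IL-3 so growth depends on FLT3. Seeded at 1×10^4 cells/well and dosed with 8 points, 10 to 0.0046 μM, 0.2% DMSO, for three days at 37 °C. IC50 from CellTiter-Glo luminescence (ATP content).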
(In general: Cellular ATP, detected with luciferase, serves as a proxy for viable cell number.)

For the compound `c1cc(-c2cnc3[nH]cc(-c4ccc5ncn(C6CCCNC6)c5c4)c3n2)cc(N2CCCCC2)n1` (centres unmarked) [P-339, 7-[3-(3-piperidyl)benzimidazol-5-yl]-2-[2-(1-piperidyl)-4-pyridyl]-5H-pyrrolo[2,3-b]pyrazine], the GI50 was in the range of 0.0001 to 1 µM. Turning to `COc1cnc2[nH]cc(-c3ccc4ncn(-c5ccccc5)c4c3)c2c1` [P-068, 5-methoxy-3-(3-phenylbenzimidazol-5-yl)-1H-pyrrolo[2,3-b]pyridine], the GI50 was 0.0001 to 1 µM.

On to `CN1CCN(c2cccc(-c3cnc4[nH]cc(-c5ccc6ncn(C(C)(C)C)c6c5)c4n3)c2)CC1` [P-331, 7-(3-tert-butylbenzimidazol-5-yl)-2-[3-(4-methylpiperazin-1-yl)phenyl]-5H-pyrrolo[2,3-b]pyrazine], for which the GI50 fell in the range of 0.0001 to 1 µM. Under `CC(C)(C)n1cnc2ccc(-c3c[nH]c4ncc(-c5ccnc(C#N)c5)cc34)cc21` [P-291, 4-[3-(3-tert-butylbenzimidazol-5-yl)-1H-pyrrolo[2,3-b]pyridin-5-yl]pyridine-2-carbonitrile] stands 0.0001 to 1 µM. In the case of `FC(F)n1cc(-c2cnc3[nH]cc(-c4ccc5ncn(C6CCCNC6)c5c4)c3c2)cn1` (centres unmarked) [P-274, 5-[1-(difluoromethyl)pyrazol-4-yl]-3-[3-(3-piperidyl)benzimidazol-5-yl]-1H-pyrrolo[2,3-b]pyridine], the GI50 fell in the range of 0.0001 to 1 µM. Consider `CC(C)(C)n1cnc2ccc(-c3n[nH]c4ncc(-c5cccc(N6CCCS6(=O)=O)c5)cc34)cc21` [P-296, 2-[3-[3-(3-tert-butylbenzimidazol-5-yl)-1H-pyrazolo[3,4-b]pyridin-5-yl]phenyl]-1,2-thiazolidine 1,1-dioxide], for which the GI50 lay in the range of 0.0001 to 1 µM. On to `Cc1ncc(C#Cc2cnc3[nH]cc(-c4ccc5ncn(C(C)(C)C)c5c4)c3n2)cn1` [P-284, 7-(3-tert-butylbenzimidazol-5-yl)-2-[2-(2-methylpyrimidin-5-yl)ethynyl]-5H-pyrrolo[2,3-b]pyrazine], for which the GI50 was in the range of 0.0001 to 1 µM.

Take `O=S1(=O)CCCCN1c1cc(-c2cnc3[nH]cc(-c4ccc5ncn(C6CCCNC6)c5c4)c3n2)ccn1` (centres unmarked) [P-310, 2-[4-[7-[3-(3-piperidyl)benzimidazol-5-yl]-5H-pyrrolo[2,3-b]pyrazin-2-yl]-2-pyridyl]thiazinane 1,1-dioxide]: the GI50 lay in the range of 0.0001 to 1 µM. In the case of `CCN1CCN(c2ccc(-c3cnc4[nH]cc(-c5ccc6ncn(C7CCCNC7)c6c5)c4n3)cn2)CC1` (centres unmarked) [P-366, 2-[6-(4-ethylpiperazin-1-yl)-3-pyridyl]-7-[3-(3-piperidyl)benzimidazol-5-yl]-5H-pyrrolo[2,3-b]pyrazine], the GI50 was 0.0001 to 1 µM. Under `CCN1CCN(c2ccc(-c3cnc4[nH]cc(-c5ccc6ncn(C(C)(C)C)c6c5)c4n3)cn2)CC1` [P-365, 7-(3-tert-butylbenzimidazol-5-yl)-2-[6-(4-ethylpiperazin-1-yl)-3-pyridyl]-5H-pyrrolo[2,3-b]pyrazine] stands 0.0001 to 1 µM; under `CC(C)(C)n1cnc2ccc(-c3c[nH]c4ncc(-c5cccc(N6CCCCC6)c5)nc34)cc21` [P-336, 7-(3-tert-butylbenzimidazol-5-yl)-2-[3-(1-piperidyl)phenyl]-5H-pyrrolo[2,3-b]pyrazine], 0.0001 to 1 µM; under `O=S1(=O)CCCN1c1cc(-c2cnc3[nH]cc(-c4ccc5ncn(C6CCCNC6)c5c4)c3n2)ccn1` (centres unmarked) [P-295, 2-[4-[7-[3-(3-piperidyl)benzimidazol-5-yl]-5H-pyrrolo[2,3-b]pyrazin-2-yl]-2-pyridyl]-1,2-thiazolidine 1,1-dioxide], 0.0001 to 1 µM. The value for `CC(C)(C)n1cnc2ccc(-c3c[nH]c4ncc(-c5ccnc(C#N)c5)nc34)cc21` [P-301, 4-[7-(3-tert-butylbenzimidazol-5-yl)-5H-pyrrolo[2,3-b]pyrazin-2-yl]pyridine-2-carbonitrile] was 0.0001 to 1 µM; that for `COc1cc(C#Cc2cnc3[nH]cc(-c4ccc5ncn(C6CCCNC6)c5c4)c3n2)ccn1` (centres unmarked) [P-280, 2-((2-methoxypyridin-4-yl)ethynyl)-7-(1-(piperidin-3-yl)-1H-benzo[d]imidazol-6-yl)-5H-pyrrolo[2,3-b]pyrazine] was 0.0001 to 1 µM; that for `c1cc(N2CCOCC2)ncc1-c1cnc2[nH]cc(-c3ccc4ncn(C5CCCNC5)c4c3)c2c1` (centres unmarked) [P-321, 4-[5-[3-[3-(3-piperidyl)benzimidazol-5-yl]-1H-pyrrolo[2,3-b]pyridin-5-yl]-2-pyridyl]morpholine] was 0.0001 to 1 µM. For the compound `CCN1CCN(c2cc(-c3cnc4[nH]cc(-c5ccc6ncn(C7CCCNC7)c6c5)c4n3)ccn2)CC1` (centres unmarked) [P-327, 2-[2-(4-ethylpiperazin-1-yl)-4-pyridyl]-7-[3-(3-piperidyl)benzimidazol-5-yl]-5H-pyrrolo[2,3-b]pyrazine], the GI50 was in the range of 0.0001 to 1 µM. As for `Cc1cc(C#Cc2cnc3[nH]cc(-c4ccc5ncn(C(C)(C)C)c5c4)c3n2)cc(C)n1` [P-282, 7-(3-tert-butylbenzimidazol-5-yl)-2-[2-(2,6-dimethyl-4-pyridyl)ethynyl]-5H-pyrrolo[2,3-b]pyrazine], the GI50 fell in the range of 0.0001 to 1 µM. Under `CC(C)(C)n1cnc2ccc(-c3c[nH]c4ncc(-c5ccnc(N6CCCCC6)c5)nc34)cc21` [P-338, 7-(3-tert-butylbenzimidazol-5-yl)-2-[2-(1-piperidyl)-4-pyridyl]-5H-pyrrolo[2,3-b]pyrazine] stands 0.0001 to 1 µM; under `c1cc(N2CCCCC2)ncc1-c1cnc2[nH]cc(-c3ccc4ncn(C5CCCNC5)c4c3)c2n1` (centres unmarked) [P-348, 7-[3-(3-piperidyl)benzimidazol-5-yl]-2-[6-(1-piperidyl)-3-pyridyl]-5H-pyrrolo[2,3-b]pyrazine], 0.0001 to 1 µM; under `c1cc(N2CCCCC2)ccc1-c1cnc2[nH]cc(-c3ccc4ncn(C5CCCNC5)c4c3)c2n1` (centres unmarked) [P-346, 7-[3-(3-piperidyl)benzimidazol-5-yl]-2-[4-(1-piperidyl)phenyl]-5H-pyrrolo[2,3-b]pyrazine], 0.0001 to 1 µM.

As for `CC(C)(C)n1cnc2ccc(-c3c[nH]c4nnc(Cl)cc34)cc21` [P-314, 5-(3-tert-butylbenzimidazol-5-yl)-3-chloro-7H-pyrrolo[2,3-c]pyridazine], the GI50 was in the range of 0.0001 to 1 µM. Under `Cc1ncc(C#Cc2cnc3[nH]cc(-c4ccc5ncn(C6CCCNC6)c5c4)c3n2)cn1` (centres unmarked) [P-285, 2-[2-(2-methylpyrimidin-5-yl)ethynyl]-7-[3-(3-piperidyl)benzimidazol-5-yl]-5H-pyrrolo[2,3-b]pyrazine] stands 0.0001 to 1 µM; under `COc1cnc2[nH]cc(-c3ccc4ncn(C(C)(C)C)c4c3)c2c1` [P-074, 1-tert-butyl-6-(5-methoxy-1H-pyrrolo[2,3-b]pyridin-3-yl)benzimidazole], 0.0001 to 1 µM; under `c1nc(N2CCOCC2)ncc1-c1cnc2[nH]cc(-c3ccc4ncn(C5CCCNC5)c4c3)c2c1` (centres unmarked) [P-277, 4-[5-[3-[3-(3-piperidyl)benzimidazol-5-yl]-1H-pyrrolo[2,3-b]pyridin-5-yl]pyrimidin-2-yl]morpholine], 0.0001 to 1 µM. With `CC(C)(C)n1cnc2ccc(-c3c[nH]c4ncc(-c5ccc(C#N)nc5)cc34)cc21` [P-290, 5-[3-(3-tert-butylbenzimidazol-5-yl)-1H-pyrrolo[2,3-b]pyridin-5-yl]pyridine-2-carbonitrile], the GI50 is 0.0001 to 1 µM. The value for `CN1CCN(c2ccc(-c3cnc4[nH]cc(-c5ccc6ncn(C(C)(C)C)c6c5)c4n3)cc2)CC1` [P-341, 7-(3-tert-butylbenzimidazol-5-yl)-2-[4-(4-methylpiperazin-1-yl)phenyl]-5H-pyrrolo[2,3-b]pyrazine] was 0.0001 to 1 µM. The value for `CC(C)(C)n1cnc2ccc(-c3c[nH]c4ncc(-c5ccc(N6CCCS6(=O)=O)cc5)cc34)cc21` [P-320, 2-[4-[3-(3-tert-butylbenzimidazol-5-yl)-1H-pyrrolo[2,3-b]pyridin-5-yl]phenyl]-1,2-thiazolidine 1,1-dioxide] was 0.0001 to 1 µM.

For the compound `O=S1(=O)CCCN1c1ccc(-c2cnc3[nH]cc(-c4ccc5ncn(C6CCCNC6)c5c4)c3c2)cc1` (centres unmarked) [P-319, 2-[4-[3-[3-(3-piperidyl)benzimidazol-5-yl]-1H-pyrrolo[2,3-b]pyridin-5-yl]phenyl]-1,2-thiazolidine 1,1-dioxide], the GI50 lay in the range of 0.0001 to 1 µM.

Turning to `COc1cnc2[nH]cc(-c3ccc4ncn(C5CCC5)c4c3)c2c1` [P-061, 1-cyclobutyl-6-(5-methoxy-1H-pyrrolo[2,3-b]pyridin-3-yl)benzimidazole], the GI50 lay in the range of 0.0001 to 1 µM.
